# Laboratory results: patent publication US20090240027A1, “INTERMEDIATES FOR MACROCYCLIC COMPOUNDS” (Tranzyme Pharma Inc., priority 2003, published 2009)
# Target: human motilin receptor (Homo sapiens, UniProt O43193)
# Assay: Competitive radioligand binding assay (Method B1)
# Parameters: purchased PerkinElmer 6110544; host or cells: CHO cells, stably transfected (membranes)
# Conditions: Radioligand competitive binding assay, Method B1; values reported as ranges; read-out: Ki (binding activity)
# Description: Competitive Radioligand Binding Assay (Motilin Receptor)
# • Membranes were prepared from CHO cells stably transfected with the human motilin receptor and utilized at a quantity of 1.5 μg/assay point.
# Final Test Concentrations (N=11) for Compounds:
# Compounds were provided frozen on dry ice at a stock concentration of 10 mM diluted in 100% DMSO and stored at −20° C. until the day of testing. On the test day, compounds were allowed to thaw at room temperature and than diluted in assay buffer according to the desired test concentrations. Under these conditions, the maximum final DMSO concentration in the assay was 0.5%.
# Plates are sealed with TopSeal-A, vortexed gently and incubated at room temperature for 2 hours. The reaction is arrested by filtering samples through pre-soaked (0.3% polyethyleneimine, 2 h) Multiscreen Harvest plates using a Tomtec® Harvester (Tomtec, Hamden, Conn.)), washed 9 times with 500 μL of cold 50 mM Tris-HCl (pH 7.4), and than plates are air-dried in a fumehood for 30 minutes. A bottom seal is applied to the plates prior to the addition of 25 μL of MicroScint-0™ to each well.
# Data are analyzed by GraphPad™ Prism (GraphPad Software, San Diego, Calif.) using a variable slope non-linear regression analysis.
# where total and non-specific binding represent the cpm obtained in the absence or presence of 1 μM motilin, respectively.
# Chain of human motilin receptor (O43193 whole entry): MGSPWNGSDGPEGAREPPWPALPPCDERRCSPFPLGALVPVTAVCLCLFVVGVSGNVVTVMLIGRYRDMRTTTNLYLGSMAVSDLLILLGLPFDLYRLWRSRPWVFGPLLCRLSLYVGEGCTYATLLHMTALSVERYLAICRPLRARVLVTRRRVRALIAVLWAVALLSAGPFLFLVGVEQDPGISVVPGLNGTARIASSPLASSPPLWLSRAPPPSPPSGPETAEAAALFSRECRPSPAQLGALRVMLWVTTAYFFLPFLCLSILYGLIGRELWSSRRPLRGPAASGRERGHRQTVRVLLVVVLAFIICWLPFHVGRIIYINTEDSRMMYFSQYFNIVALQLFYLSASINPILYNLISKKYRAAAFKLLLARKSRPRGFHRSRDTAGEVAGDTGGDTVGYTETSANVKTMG
row,Ki,Structure (SMILES)
1,100 to 1000 nM,CCCC1NC(=O)C(C(C)C)NC(=O)C(Cc2ccccc2OC)NCCOc2ccccc2CCCNC1=O (stereo not drawn) [Compound 166]
2,1000 to 10000 nM,CCCC1NC(=O)C(C(C)C)NC(=O)C(Cc2ccc(O)cc2)NCCN(C)CCNC1=O (stereo not drawn) [Compound 99]
3,1 to 100 nM,CC(C)C[C@@H]1NC(=O)[C@@H](C(C)C)NC(=O)[C@@H](Cc2ccc(F)cc2)NCCOc2ccccc2CCCNC1=O [Compound 133]
4,1000 to 10000 nM,CCCC1NC(=O)C(CCC)NC(=O)C(Cc2ccc(O)cc2)NCCOc2ccccc2CCCNC1=O (stereo not drawn) [Compound 91]
5,1 to 100 nM,CC(C)[C@H]1NC(=O)[C@@H](Cc2ccc(Cl)cc2)NCCOc2ccccc2CCCNC(=O)[C@H](CC2CC2)NC1=O [Compound 145]
6,1000 to 10000 nM,CCCC1NC(=O)C(C2CCCCC2)NC(=O)C(Cc2ccc(O)cc2)NCCOc2ccccc2CCCNC1=O (stereo not drawn) [Compound 97]
7,100 to 1000 nM,CCCC1NC(=O)C(C(C)C)NC(=O)C(Cc2c[nH]cn2)NCc2ccccc2Sc2ccccc2CNC1=O (stereo not drawn) [Compound 127]
8,100 to 1000 nM,CCC[C@@H]1NC(=O)[C@@H](C(C)C)NC(=O)[C@@H](Cc2c[nH]c3ccccc23)NCCOc2ccccc2CCCNC1=O [Compound 17]
9,100 to 1000 nM,CCCC1NC(=O)C(C)NC(=O)C(Cc2ccc(O)cc2)NCCOc2ccccc2C=CCNC1=O (stereo not drawn) [Compound 5]
10,100 to 1000 nM,CCCC1NC(=O)C(C(C)C)NC(=O)C(Cc2ccccn2)NCCOc2ccccc2CCCNC1=O (stereo not drawn) [Compound 123]
11,100 to 1000 nM,COc1ccc(CC2NCCOc3cccnc3CCCNC(=O)C(CC(C)C)NC(=O)C(C(C)C)NC2=O)cc1 (stereo not drawn) [Compound 135]
12,100 to 1000 nM,COc1ccc(C[C@H]2NCCOc3ccccc3CCCNC(=O)[C@H](CC(C)C)NC(=O)[C@@H](C(C)C)NC2=O)cc1 [Compound 128]
13,100 to 1000 nM,CCC[C@@H]1NC(=O)[C@@H](C(C)C)NC(=O)[C@@H](Cc2ccc(C)cc2)NCCOc2ccccc2CCCNC1=O [Compound 164]
14,1 to 100 nM,CC(C)[C@H]1NC(=O)[C@@H](Cc2ccc(O)cc2)NCCOc2ccccc2CCCNC(=O)[C@H](CC2CC2)NC1=O [Compound 26]
15,100 to 1000 nM,CCCC1NC(=O)C(C(C)C)NC(=O)C(Cc2cccnc2)NCCOc2ccccc2CCCNC1=O (stereo not drawn) [Compound 28]
16,100 to 1000 nM,CCCC1NC(=O)C(C(C)C)NC(=O)C(Cc2cscn2)NCCOc2ccccc2CCCNC1=O (stereo not drawn) [Compound 27]
17,1 to 100 nM,CC(C)[C@H]1NC(=O)[C@@H](Cc2ccc(Cl)cc2)NCCOc2ccccc2CCCNC(=O)[C@H](CN)NC1=O [Compound 156]
18,100 to 1000 nM,CSCCC1NC(=O)C(C(C)C)NC(=O)C(Cc2ccc(O)cc2)NCCOc2ccccc2C=CCNC1=O (stereo not drawn) [Compound 6]
19,100 to 1000 nM,CC(C)C1NC(=O)C(Cc2ccc(Cl)cc2)NCCOc2cccnc2CCCNC(=O)C(CC2CC2)NC1=O (stereo not drawn) [Compound 150]
20,100 to 1000 nM,CC(C)CC1NC(=O)C(C(C)C)NC(=O)C(Cc2ccc(Cl)cc2)NCCOc2cccnc2CCCNC1=O (stereo not drawn) [Compound 139]
21,100 to 1000 nM,CC(C)C1NC(=O)C(Cc2ccc(O)cc2)NCCOc2ccccc2C=CCNC(=O)C(Cc2c[nH]c3ccccc23)NC1=O (stereo not drawn) [Compound 59]

row,Ki,Structure (SMILES)
1,100 to 1000 nM,CC(C)CC1NC(=O)C(C(C)C)NC(=O)C(Cc2cccs2)NCCOc2cccnc2CCCNC1=O (stereo not drawn) [Compound 137]
2,1000 to 10000 nM,CCCCC1NC(=O)C(Cc2ccc(O)cc2)NCCOc2ccccc2C=CCNC(=O)C(CCC)NC1=O (stereo not drawn) [Compound 77]
3,1 to 100 nM,CCC[C@@H]1NC(=O)[C@@H](C(C)C)NC(=O)[C@@H](Cc2ccc(OC)cc2)NCCOc2ccccc2CCCNC1=O [Compound 22]
4,100 to 1000 nM,CCCC1NC(=O)C(C(C)C)NC(=O)C(Cc2ccncc2)NCCOc2ccccc2CCCNC1=O (stereo not drawn) [Compound 124]
5,1000 to 10000 nM,CC1NC(=O)C(C(C)C)NC(=O)C(Cc2ccc(O)cc2)NCCOc2ccccc2C=CCNC1=O (stereo not drawn) [Compound 38]
6,100 to 1000 nM,CCCC1NC(=O)C(C(C)C)NC(=O)CC(Cc2cccc(Cl)c2)NCCOc2ccccc2CCCNC1=O (stereo not drawn) [Compound 169]
7,1000 to 10000 nM,CCCC1NC(=O)C(C(C)C)NC(=O)C(Cc2ccc(OC(C)(C)C)cc2)NCCOc2ccccc2CCCNC1=O (stereo not drawn) [Compound 88]
8,100 to 1000 nM,CCCC1NC(=O)C(C(C)C)NC(=O)C(Cc2ccc(O)cc2)NCCOc2cccnc2CCCNC1=O (stereo not drawn) [Compound 110]
9,100 to 1000 nM,CC(C)C1NC(=O)C(Cc2ccc(F)cc2)NCCOc2ccccc2CCCNC(=O)C(CN)NC1=O (stereo not drawn) [Compound 157]
10,100 to 1000 nM,CCCC1NC(=O)C(Cc2ccc(O)cc2)NC(=O)C(Cc2ccc(O)cc2)NCCOc2ccccc2C=CCNC1=O (stereo not drawn) [Compound 34]
11,100 to 1000 nM,CCCC1NC(=O)C(C(C)C)NC(=O)C(Cc2ccccc2Cl)NCCOc2ccccc2CCCNC1=O (stereo not drawn) [Compound 25]
12,1 to 100 nM,CCC[C@@H]1NC(=O)[C@@H](C(C)C)NC(=O)[C@@H](Cc2cccc(Cl)c2)NCCOc2ccccc2CCCNC1=O [Compound 15]
13,1 to 100 nM,CC(C)[C@H]1NC(=O)[C@@H](Cc2cccc(Cl)c2)NCCOc2cccnc2CCCNC(=O)[C@H](CN)NC1=O [Compound 158]
14,1 to 100 nM,CCC[C@@H]1NC(=O)[C@@H](C(C)C)NC(=O)[C@@H](Cc2cccc3ccccc23)NCCOc2ccccc2CCCNC1=O [Compound 23]
15,1 to 100 nM,CCC[C@@H]1NC(=O)[C@@H](C(C)C)NC(=O)[C@@H](Cc2ccc(F)c(F)c2)NCCOc2ccccc2CCCNC1=O [Compound 171]
16,1 to 100 nM,COc1ccc(C[C@H]2NCCOc3ccccc3CCCNC(=O)[C@H](CC3CC3)NC(=O)[C@@H](C(C)C)NC2=O)cc1 [Compound 141]
17,1 to 100 nM,CCC[C@@H]1NC(=O)[C@@H](C(C)C)NC(=O)[C@@H](Cc2ccccc2)NCCOc2ccccc2/C=C/CNC1=O [Compound 2]
18,1 to 100 nM,CCC[C@@H]1NC(=O)[C@@H](C(C)C)NC(=O)[C@@H](Cc2ccc(Cl)cc2)NCCOc2ccccc2CCCNC1=O [Compound 16]
19,1 to 100 nM,CC(C)C[C@@H]1NC(=O)[C@@H](C(C)C)NC(=O)[C@@H](Cc2cccc(Cl)c2)NCCOc2ccccc2CCCNC1=O [Compound 131]
20,100 to 1000 nM,CC(C)C1NC(=O)C(Cc2cccc3ccccc23)NCCOc2ccccc2CCCNC(=O)C(CN)NC1=O (stereo not drawn) [Compound 153]
21,100 to 1000 nM,CC(C)CC1NC(=O)C(C(C)C)NC(=O)C(Cc2ccc(F)cc2)NCCOc2cccnc2CCCNC1=O (stereo not drawn) [Compound 140]

row,Ki,Structure (SMILES)
1,100 to 1000 nM,CC(C)C1NC(=O)C(Cc2ccc(O)cc2)NCCOc2ccccc2C=CCNC(=O)C(CO)NC1=O (stereo not drawn) [Compound 57]
2,100 to 1000 nM,COc1ccc(CC2NCCOc3ccccc3CCCNC(=O)C(CN)NC(=O)C(C(C)C)NC2=O)cc1 (stereo not drawn) [Compound 152]
3,100 to 1000 nM,CC(C)C1NC(=O)C(Cc2ccc(O)cc2)NCCOc2ccccc2C=CCNC(=O)C(C(C)C)NC1=O (stereo not drawn) [Compound 9]
4,100 to 1000 nM,CCC1NC(=O)C(C(C)C)NC(=O)C(Cc2ccc(O)cc2)NCCOc2ccccc2C=CCNC1=O (stereo not drawn) [Compound 12]
5,100 to 1000 nM,CCCC1NC(=O)C(C(C)CC)NC(=O)C(Cc2ccc(O)cc2)NCCOc2ccccc2CCCNC1=O (stereo not drawn) [Compound 160]
6,100 to 1000 nM,CCCC1NC(=O)C(C(C)C)NC(=O)C(Cc2ccc(O)cc2)NCCOc2cccc(c2)OCCNC1=O (stereo not drawn) [Compound 71]
7,1000 to 10000 nM,CCCC1NC(=O)C(C(C)C)NC(=O)C(Cc2ccc(O)cc2)NCCCNCCNC1=O (stereo not drawn) [Compound 98]
8,100 to 1000 nM,CC(C)C1NC(=O)C(Cc2ccc(O)cc2)NCCOc2ccccc2CCCNC(=O)C(CCN)NC1=O (stereo not drawn) [Compound 109]
9,100 to 1000 nM,CCCC1NC(=O)C(C2CC2)NC(=O)C(Cc2ccc(O)cc2)NCCOc2ccccc2CCCNC1=O (stereo not drawn) [Compound 125]
10,1 to 100 nM,CC(C)C[C@@H]1NC(=O)[C@@H](C(C)C)NC(=O)[C@@H](Cc2ccc3ccccc3c2)NCCOc2ccccc2/C=C/CNC1=O [Compound 21]
11,100 to 1000 nM,CCCC1NC(=O)C(C(C)C)NC(=O)C(Cc2ccc(O)cc2)NCCOc2ccccc2C=CCNC1=O (stereo not drawn) [Compound 85]
12,1 to 100 nM,CC(C)[C@H]1NC(=O)[C@@H](Cc2cccc(Cl)c2)NCCOc2ccccc2CCCNC(=O)[C@H](CN)NC1=O [Compound 155]
13,100 to 1000 nM,COc1ccc(CC2NCCOc3ccccc3CCCNC(=O)C(CO)NC(=O)C(C(C)C)NC2=O)cc1 (stereo not drawn) [Compound 178]
14,100 to 1000 nM,CCCC1NC(=O)C(C(C)C)NC(=O)C(Cc2ccccc2C)NCCOc2ccccc2CCCNC1=O (stereo not drawn) [Compound 162]
15,1000 to 10000 nM,CCCC1NC(=O)C(C(C)C)NC(=O)C(CCc2ccccc2)NCCOc2ccccc2CCCNC1=O (stereo not drawn) [Compound 89]
16,1 to 100 nM,CC(C)C[C@@H]1NC(=O)[C@@H](C(C)C)NC(=O)[C@@H](Cc2ccc(Cl)cc2)NCCOc2ccccc2CCCNC1=O [Compound 132]
17,100 to 1000 nM,CC(C)C1NC(=O)C(Cc2ccc(O)cc2)NCCOc2ccccc2C=CCNC(=O)C(CCCN)NC1=O (stereo not drawn) [Compound 56]
18,1 to 100 nM,CCC[C@@H]1NC(=O)[C@@H](C(C)C)NC(=O)[C@@H](Cc2ccc(Cl)c(Cl)c2)NCCOc2ccccc2CCCNC1=O [Compound 170]
19,100 to 1000 nM,CC(C)CC1NC(=O)C(C(C)C)NC(=O)C(Cc2ccccc2)NCCOc2ccccc2C=CCNC1=O (stereo not drawn) [Compound 20]
20,1000 to 10000 nM,CC(C)C1NC(=O)C(Cc2ccc(O)cc2)NCCOc2ccccc2C=CCNC(=O)CNC1=O (stereo not drawn) [Compound 40]

# Same assay, conditions: [125I]-motilin competition, CHO cell membranes with human motilin receptor; read-out: Binding activity (Ki)
row,Ki,Structure (SMILES)
1,100 to 1000 nM,CCCC1NC(=O)C(C(C)C)NC(=O)C(Cc2ccc(O)cc2)NCCOc2ccccc2C=CCNC1=O (stereo not drawn) [Compound 1]
